Laboratory results reported in ChEMBL document CHEMBL1201862, “PubChem BioAssay data set” (2004).
Where a name gives a salt, the structure may show the parent alone. Calls of active or inactive are those of the source.

Columns and labels:
[1] = molecular target: T1, Protein RecA (Mycobacterium tuberculosis, UniProt P9WHJ3); assay: Fluorescence Cell-Free Homogeneous Dose Retest to Identify Inhibitors of RecA-Intein Splicing Activity. [Related pubchem assays (depositor defined):AID2097, AID2223, AID489010, AID492950]; format: functional
T1 sequence (P9WHJ3 whole entry): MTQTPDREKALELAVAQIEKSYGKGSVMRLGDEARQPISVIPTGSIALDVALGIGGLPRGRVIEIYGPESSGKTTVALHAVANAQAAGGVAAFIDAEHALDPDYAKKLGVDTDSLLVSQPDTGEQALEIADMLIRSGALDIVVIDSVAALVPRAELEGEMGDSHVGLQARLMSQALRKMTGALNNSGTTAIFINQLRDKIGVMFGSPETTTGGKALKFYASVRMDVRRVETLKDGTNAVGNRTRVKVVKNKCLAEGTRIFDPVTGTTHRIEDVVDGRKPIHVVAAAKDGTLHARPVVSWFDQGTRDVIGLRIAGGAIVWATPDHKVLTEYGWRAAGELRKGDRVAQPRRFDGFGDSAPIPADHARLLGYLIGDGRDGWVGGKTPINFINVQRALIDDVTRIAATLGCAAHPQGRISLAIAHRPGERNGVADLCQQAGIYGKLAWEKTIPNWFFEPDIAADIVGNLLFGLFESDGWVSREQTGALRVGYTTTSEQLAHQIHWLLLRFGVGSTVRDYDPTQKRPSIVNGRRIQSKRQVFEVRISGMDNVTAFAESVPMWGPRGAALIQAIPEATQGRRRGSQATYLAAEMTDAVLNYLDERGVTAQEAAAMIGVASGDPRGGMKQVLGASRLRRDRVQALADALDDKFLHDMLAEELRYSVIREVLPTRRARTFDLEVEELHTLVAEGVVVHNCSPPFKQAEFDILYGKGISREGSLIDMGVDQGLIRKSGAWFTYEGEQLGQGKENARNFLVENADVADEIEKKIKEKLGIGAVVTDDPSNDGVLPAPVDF

[2] = molecular target: T2, Replicative DNA helicase DnaB (Mycobacterium tuberculosis, UniProt P9WMR3); assay: DnaB intein splicing inhibitors, dose response, biochemical, cell-free fluorescence (AID 449749); format: functional
T2 sequence (P9WMR3 whole entry): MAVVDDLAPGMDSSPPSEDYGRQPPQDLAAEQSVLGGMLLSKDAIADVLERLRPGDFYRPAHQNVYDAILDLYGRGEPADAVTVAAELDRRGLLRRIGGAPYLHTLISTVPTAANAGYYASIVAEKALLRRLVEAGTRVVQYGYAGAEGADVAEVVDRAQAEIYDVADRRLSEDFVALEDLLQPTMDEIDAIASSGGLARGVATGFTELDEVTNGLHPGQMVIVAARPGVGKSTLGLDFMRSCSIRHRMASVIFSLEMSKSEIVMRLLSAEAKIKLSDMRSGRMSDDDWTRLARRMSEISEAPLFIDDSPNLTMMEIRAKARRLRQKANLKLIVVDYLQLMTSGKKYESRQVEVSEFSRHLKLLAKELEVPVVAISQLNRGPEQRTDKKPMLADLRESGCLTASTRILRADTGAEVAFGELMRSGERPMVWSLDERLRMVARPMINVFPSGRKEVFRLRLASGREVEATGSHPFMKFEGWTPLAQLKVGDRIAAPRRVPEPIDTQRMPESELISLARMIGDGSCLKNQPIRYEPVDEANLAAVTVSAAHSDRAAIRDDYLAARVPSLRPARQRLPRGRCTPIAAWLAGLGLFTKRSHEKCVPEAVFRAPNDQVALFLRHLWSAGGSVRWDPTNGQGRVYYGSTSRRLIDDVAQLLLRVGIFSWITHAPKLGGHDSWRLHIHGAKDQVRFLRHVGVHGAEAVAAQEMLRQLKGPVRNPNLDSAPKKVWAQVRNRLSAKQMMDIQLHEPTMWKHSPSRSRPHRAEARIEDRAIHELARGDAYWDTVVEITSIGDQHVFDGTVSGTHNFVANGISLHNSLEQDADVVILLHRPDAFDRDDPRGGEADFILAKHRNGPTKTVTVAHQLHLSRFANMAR

[3] = molecular target: Caspase-7 (Homo sapiens, UniProt P55210); assay: procaspase-7 activators, dose response, dual procaspase-3/-7 activator project, biochemical, absorbance, human (AID 504330)
[4] = molecular target: T3, Caspase-3 (Homo sapiens, UniProt P42574); assay: procaspase-3 activation potency of dual hits, dose response, counter-screen for dual procaspase-3/7 activator project, biochemical, absorbance, PC-3 D3A mutant (AID 504328)
T3 sequence (P42574 whole entry): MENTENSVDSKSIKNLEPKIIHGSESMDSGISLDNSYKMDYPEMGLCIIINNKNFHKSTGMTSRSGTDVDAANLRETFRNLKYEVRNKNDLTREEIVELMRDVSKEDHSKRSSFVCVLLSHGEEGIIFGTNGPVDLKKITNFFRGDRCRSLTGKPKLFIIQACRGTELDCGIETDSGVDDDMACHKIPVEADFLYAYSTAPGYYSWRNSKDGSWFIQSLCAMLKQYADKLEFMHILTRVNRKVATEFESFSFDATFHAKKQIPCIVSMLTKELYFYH

[5] = tested on: Trypanosoma cruzi; assay: growth inhibition of intracellular Trypanosoma cruzi, dose response, cell-based, plate reader, dry powder, set 3 (AID 493197); format: functional
[6] = cytotoxicity in NIH/3T3 mouse fibroblasts, dose response, cytotoxicity control, cell-based, mouse embryonic fibroblasts, dry powder, set 2 (AID 493247); format: functional; conditions: Fibroblast
[7] = molecular target: T4, Cannabinoid receptor 1 (Homo sapiens, UniProt P21554); assay: SAR analysis of agonists of the Cannabinoid Receptor 1 using an Image-Based Assay - Set 3. [Related pubchem assays (depositor defined):AID1961, AID1965]; format: functional
T4 sequence (P21554 whole entry): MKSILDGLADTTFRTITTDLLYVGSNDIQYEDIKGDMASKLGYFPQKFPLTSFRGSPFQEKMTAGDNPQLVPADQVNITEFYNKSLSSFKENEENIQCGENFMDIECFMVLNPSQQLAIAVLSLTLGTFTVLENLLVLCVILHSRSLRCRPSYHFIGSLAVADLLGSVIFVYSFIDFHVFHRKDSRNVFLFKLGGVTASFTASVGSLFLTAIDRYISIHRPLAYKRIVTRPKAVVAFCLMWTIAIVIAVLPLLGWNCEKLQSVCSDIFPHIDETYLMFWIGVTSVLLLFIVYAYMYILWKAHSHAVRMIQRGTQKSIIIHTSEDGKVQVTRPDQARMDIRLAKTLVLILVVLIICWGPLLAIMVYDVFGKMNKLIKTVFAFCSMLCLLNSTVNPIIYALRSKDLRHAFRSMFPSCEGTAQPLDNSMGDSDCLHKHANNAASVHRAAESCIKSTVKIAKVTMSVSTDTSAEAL

[8] = molecular target: T4, Cannabinoid receptor 1; assay: SAR analysis of antagonists of the Cannabinoid Receptor 1 using an Image-Based Assay - Set 3. [Related pubchem assays (depositor defined):AID1961, AID1965]; format: functional
[9] = molecular target: T5, G-protein coupled receptor 35 (Homo sapiens, UniProt Q9HC97); assay: SAR analysis of Antagonists of the GPR35 Receptor using an Image-Based Assay - Set 4. [Related pubchem assays (depositor defined):[…]]; format: functional
T5 sequence (Q9HC97 whole entry): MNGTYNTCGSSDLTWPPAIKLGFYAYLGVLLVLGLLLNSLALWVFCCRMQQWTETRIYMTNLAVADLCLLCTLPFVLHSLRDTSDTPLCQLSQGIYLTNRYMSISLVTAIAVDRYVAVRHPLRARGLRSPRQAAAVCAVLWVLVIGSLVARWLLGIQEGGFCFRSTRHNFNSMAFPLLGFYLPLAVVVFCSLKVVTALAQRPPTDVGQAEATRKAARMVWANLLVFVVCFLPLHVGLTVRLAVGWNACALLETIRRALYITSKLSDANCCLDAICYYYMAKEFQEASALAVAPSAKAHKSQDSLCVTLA

[10] = molecular target: T6, Cannabinoid receptor 2 (Homo sapiens, UniProt P34972); assay: SAR analysis of agonists of the Cannabinoid Receptor 2 using an Image-Based Assay - Set 2. [Related pubchem assays (depositor defined):AID1961, AID1965]; format: functional
T6 sequence (P34972 whole entry): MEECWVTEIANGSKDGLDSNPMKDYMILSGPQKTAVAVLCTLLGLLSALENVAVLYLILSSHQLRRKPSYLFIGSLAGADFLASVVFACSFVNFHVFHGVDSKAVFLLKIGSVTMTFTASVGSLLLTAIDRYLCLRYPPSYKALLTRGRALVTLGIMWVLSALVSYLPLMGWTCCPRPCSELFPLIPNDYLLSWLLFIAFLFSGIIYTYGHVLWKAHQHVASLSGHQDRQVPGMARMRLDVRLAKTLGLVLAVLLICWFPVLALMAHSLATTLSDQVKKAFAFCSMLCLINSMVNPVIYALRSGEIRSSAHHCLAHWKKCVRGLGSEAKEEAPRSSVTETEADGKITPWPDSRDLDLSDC

[11] = molecular target: G-protein coupled receptor 55 (Homo sapiens, UniProt Q9Y2T6); assay: SAR analysis of selective Agonists of GPR55 using an Image-Based Assay - Set 2. [Related pubchem assays (depositor defined):AID1961, AID1965]; format: functional
G-protein coupled receptor 55, sequence (Q9Y2T6 whole entry): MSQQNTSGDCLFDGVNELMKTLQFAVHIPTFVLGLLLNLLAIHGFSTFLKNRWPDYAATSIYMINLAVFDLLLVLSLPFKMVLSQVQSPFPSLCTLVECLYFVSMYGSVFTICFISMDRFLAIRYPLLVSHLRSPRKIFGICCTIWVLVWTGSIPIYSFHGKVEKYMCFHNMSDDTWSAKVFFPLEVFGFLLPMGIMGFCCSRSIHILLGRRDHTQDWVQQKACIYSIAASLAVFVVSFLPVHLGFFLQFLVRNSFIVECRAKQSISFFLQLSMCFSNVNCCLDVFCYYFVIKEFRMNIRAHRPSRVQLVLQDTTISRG

[12] = molecular target: T6, Cannabinoid receptor 2; assay: SAR analysis of antagonists of the Cannabinoid Receptor 2 using an Image-Based Assay - Set 2. [Related pubchem assays (depositor defined):AID1961, AID1965]; format: functional
[13] = molecular target: T5, G-protein coupled receptor 35; assay: SAR analysis of Agonists of the GPR35 Receptor using an Image-Based Assay - Set 3. [Related pubchem assays (depositor defined):AID1961, AID1965]; format: functional
[14] = molecular target: T7, Tyrosine-protein phosphatase non-receptor type 7 (Homo sapiens, UniProt P35236); assay: SAR analysis of chemical inhibitors of HePTP using a Fluorescent assay - Set 2. [Related pubchem assays (depositor defined):AID1059, AID1077, AID1661, AID2085, AID521]; format: functional
T7 sequence (P35236 whole entry): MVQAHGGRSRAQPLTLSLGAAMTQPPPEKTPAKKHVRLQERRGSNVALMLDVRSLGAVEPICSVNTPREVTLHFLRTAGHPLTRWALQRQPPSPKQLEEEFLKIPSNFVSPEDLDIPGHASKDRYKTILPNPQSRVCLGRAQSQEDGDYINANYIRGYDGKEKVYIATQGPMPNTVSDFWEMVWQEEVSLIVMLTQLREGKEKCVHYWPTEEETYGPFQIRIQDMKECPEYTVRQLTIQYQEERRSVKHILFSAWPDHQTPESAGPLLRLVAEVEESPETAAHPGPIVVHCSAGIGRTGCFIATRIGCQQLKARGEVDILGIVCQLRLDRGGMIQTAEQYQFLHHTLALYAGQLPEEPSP

[15] = molecular target: Alkaline phosphatase, placental type (Homo sapiens, UniProt P05187); assay: PLAP enzyme inhibitors, confirmation, biochemical, luminescence (AID 1512); format: functional
Alkaline phosphatase, placental type, sequence (P05187 whole entry): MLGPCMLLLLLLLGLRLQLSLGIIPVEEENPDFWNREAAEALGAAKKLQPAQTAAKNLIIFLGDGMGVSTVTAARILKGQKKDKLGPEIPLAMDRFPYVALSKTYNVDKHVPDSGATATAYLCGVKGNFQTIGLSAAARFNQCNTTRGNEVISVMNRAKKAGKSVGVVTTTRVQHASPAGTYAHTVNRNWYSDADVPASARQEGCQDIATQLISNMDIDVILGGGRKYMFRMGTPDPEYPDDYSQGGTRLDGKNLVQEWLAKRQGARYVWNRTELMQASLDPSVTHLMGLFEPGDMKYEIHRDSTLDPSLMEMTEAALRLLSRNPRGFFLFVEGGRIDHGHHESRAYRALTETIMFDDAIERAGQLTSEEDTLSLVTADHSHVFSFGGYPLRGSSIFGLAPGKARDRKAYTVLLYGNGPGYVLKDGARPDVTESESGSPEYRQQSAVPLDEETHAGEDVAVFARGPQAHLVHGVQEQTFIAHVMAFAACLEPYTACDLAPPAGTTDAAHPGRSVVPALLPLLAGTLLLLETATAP

[16] = molecular target: Dual specificity protein phosphatase 3 (Homo sapiens, UniProt P51452); assay: SAR VHR1 Fluorescent Assay for In Vitro dose response studies Set 2. [Related pubchem assays (depositor defined):AID1654, AID1661, AID1878]; format: functional
Dual specificity protein phosphatase 3, sequence (P51452 whole entry): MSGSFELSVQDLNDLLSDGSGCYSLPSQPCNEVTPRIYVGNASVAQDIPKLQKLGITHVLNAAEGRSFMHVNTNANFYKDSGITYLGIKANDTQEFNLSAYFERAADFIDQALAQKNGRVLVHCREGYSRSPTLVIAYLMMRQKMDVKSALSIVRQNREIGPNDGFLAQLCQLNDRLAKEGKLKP

[17] = molecular target: 5-hydroxytryptamine receptor 1A (Homo sapiens, UniProt P08908); format: functional
5-hydroxytryptamine receptor 1A, sequence (P08908 whole entry): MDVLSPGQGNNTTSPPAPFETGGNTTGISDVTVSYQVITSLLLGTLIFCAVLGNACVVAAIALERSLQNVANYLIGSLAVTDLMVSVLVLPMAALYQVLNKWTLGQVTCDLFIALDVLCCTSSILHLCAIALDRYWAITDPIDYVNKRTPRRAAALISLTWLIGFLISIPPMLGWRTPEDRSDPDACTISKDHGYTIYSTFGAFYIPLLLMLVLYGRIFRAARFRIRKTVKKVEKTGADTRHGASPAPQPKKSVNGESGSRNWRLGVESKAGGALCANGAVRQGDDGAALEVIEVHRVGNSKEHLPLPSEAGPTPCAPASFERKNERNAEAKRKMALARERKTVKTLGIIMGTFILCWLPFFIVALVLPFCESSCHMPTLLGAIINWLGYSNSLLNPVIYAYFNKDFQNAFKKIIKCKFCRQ

[18] = molecular target: T8, Short transient receptor potential channel 4 (Mus musculus, UniProt Q9QUQ5); assay: TRPC4 positive allosteric modulators, dose response, cell-based, HEK293 TRPC4/mu-opioid, Fluo-4 calcium, EC20 DAMGO (AID 434941); format: functional
T8 sequence (Q9QUQ5 whole entry): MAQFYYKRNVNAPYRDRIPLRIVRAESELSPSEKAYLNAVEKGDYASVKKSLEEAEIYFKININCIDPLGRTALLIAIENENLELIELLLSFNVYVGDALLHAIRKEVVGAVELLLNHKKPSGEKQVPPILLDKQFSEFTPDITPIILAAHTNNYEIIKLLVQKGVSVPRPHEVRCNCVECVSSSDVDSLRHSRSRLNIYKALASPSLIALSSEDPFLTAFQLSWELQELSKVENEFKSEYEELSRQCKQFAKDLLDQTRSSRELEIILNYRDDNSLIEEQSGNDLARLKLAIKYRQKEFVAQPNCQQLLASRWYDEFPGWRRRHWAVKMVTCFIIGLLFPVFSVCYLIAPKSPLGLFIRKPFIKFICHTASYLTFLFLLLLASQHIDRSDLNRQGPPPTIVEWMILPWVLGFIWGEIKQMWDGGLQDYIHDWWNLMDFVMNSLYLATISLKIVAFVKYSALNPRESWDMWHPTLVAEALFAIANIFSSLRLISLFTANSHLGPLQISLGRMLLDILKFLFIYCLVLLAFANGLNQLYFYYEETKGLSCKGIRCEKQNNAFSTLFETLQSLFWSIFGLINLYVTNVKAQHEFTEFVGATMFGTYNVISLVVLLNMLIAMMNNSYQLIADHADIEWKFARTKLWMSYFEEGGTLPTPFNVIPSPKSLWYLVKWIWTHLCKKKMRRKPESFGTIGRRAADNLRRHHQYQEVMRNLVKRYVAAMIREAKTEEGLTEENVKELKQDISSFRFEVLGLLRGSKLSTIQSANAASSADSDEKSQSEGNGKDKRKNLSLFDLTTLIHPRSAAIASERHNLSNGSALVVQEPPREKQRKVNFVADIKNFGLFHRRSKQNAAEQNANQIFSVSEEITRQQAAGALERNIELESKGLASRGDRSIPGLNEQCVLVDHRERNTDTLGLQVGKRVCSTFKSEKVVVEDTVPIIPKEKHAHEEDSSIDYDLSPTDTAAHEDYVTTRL

Cc1n[nH]c2c1C(c1c[nH]c3ccccc13)C(C#N)=C(N)O2 (stereo not drawn)
EC50 [1]: 2.03 µM (active) | AC50 [2]: 3.79 µM (active) | EC50 [3]: 27.8 µM (inactive) | EC50 [4]: 23.1 µM (inactive)

O=C(Cc1cccnc1)N/N=C/c1ccc([N+](=O)[O-])o1
AC50 [5]: 131 nM (active) | AC50 [6]: 23.1 µM (active)

COc1ccc(-c2csc(NC(=O)CSc3nnc4c(C)cc5cc6c(cc5n34)OCO6)n2)cc1
EC50 [7]: > 32 µM (inactive) | IC50 [8]: > 32 µM (inactive) | IC50 [9]: > 32 µM (inactive) | EC50 [10]: > 32 µM (inactive) | EC50 [11]: > 32 µM (inactive) | IC50 [12]: > 32 µM (inactive) | EC50 [13]: > 32 µM (inactive)

Cc1ccc(NC(S)=NNC(=O)c2cn(C)nc2C)cc1
IC50 [14]: > 100 µM (inactive) | IC50 [15]: > 100 µM (inactive) | IC50 [16]: > 100 µM (inactive)

Cc1cc(C(C)(C)C)c(O)c(C)c1CC1=NCCN1 [OXYMETAZOLINE HYDROCHLORIDE]
EC50 [17]: 70 nM (active) | EC50 [18]: 3.35 µM (active)
